Results as given in patent US20240325351A1, “METHOD OF ADMINISTRATION” (Cybin UK Ltd., priority 2023, published 2024).
Several values for one entry are separate records, joined by “and”; a condition that tells them apart may be missing. Equal entries are not always repeated.

Experiments:
[1] = 33 mg; cited from earlier work
[2] = test system: major depressive disorder; details: in vivo; cited from earlier work
[3] = test system: patients with moderate-severe Major Depressive Disorder; assay: BDI-II (Beck Depression Inventory), same study; assay type: in vivo, human; details: for BDI-II score: individual patients, fumarate
Text: (§1) An unblinded study of a single dose of N,N-dimethyltryptamine [DMT] fumarate in patients currently taking a selective serotonin reuptake inhibitor (SSRI) for their depression, but for whom the SSRI is not fully relieving their depression is ongoing (ClinicalTrials.gov Identifier: NCT05553691). The study comprises two groups:
(§2) “Test Cohort”: Patients who are currently on a stable treatment course of SSRIs, which have been ineffective in fully relieving their depression symptoms (SSRI prescribed outside of study). Patients were administered a single dose of DMT fumarate by intravenous infusion; and
(§3) “Control Cohort”: Patients who are not currently taking any pharmacological treatment for their depression (control group). Patients were administered a single dose of DMT fumarate by intravenous infusion.
(§4) Patients were recruited with moderate-severe Major Depressive Disorder (“MDD”) as defined by a Hamilton Depression Rating Scale (HAM-D) score of ≥14. Efficacy was assessed using the Montgomery-Asberg Depression Rating scale (MADRS) to measure any change in patients' depression symptoms from baseline (Day 0). Additional exploratory endpoints include the Beck Depression Inventory (BDI) to assess patients' self-reported depression, and the State-Trait Anxiety Inventory (STAI-T) to assess patients' self-reported anxiety.
(§5) DMT fumarate is administered by intravenous infusion on Day 1.

[4] = test system: patients with moderate-severe Major Depressive Disorder; assay: MADRS in unblinded study of single IV dose of DMT fumarate (NCT05553691); assay type: in vivo, human; details: for MADRS score: individual patients; for MADRS score / Remission (MADRS score ≤10) / Response (≥50% reduction in MADRS score from baseline): fumarate
Text: as §1, §2, §3, §4, §5

[5] = test system: patients with moderate-severe Major Depressive Disorder; assay: Safety & Tolerability, same study; assay type: in vivo, human
Text: as §1, §2, §3, §5
The administration of DMT fumarate was well-tolerated by all patients in both the test and the control cohorts, with no apparent differences between cohorts.

[6] = test system: patients with moderate-severe Major Depressive Disorder; assay: STAI-T (State-Trait Anxiety Inventory), same study; assay type: in vivo, human; details: for STAI-T score: individual patients, fumarate
Text: as §1, §2, §3, §4, §5

[7] = Control Cohort, n=5, Day 15 vs Day 0
[8] = Control Cohort, n=5, Day 29 vs Day 0
[9] = Test Cohort (on SSRI), n=12, Day 15
[10] = Test Cohort (on SSRI), n=12, Day 15 vs Day 0
[11] = Test Cohort (on SSRI), n=12, Day 29
[12] = Test Cohort (on SSRI), n=12, Day 29 vs Day 0
[13] = Test Cohort (on stable SSRI), Day 15
[14] = Test Cohort (on stable SSRI), Day 29
[15] = Control Cohort, n=5, Day 8 vs Day 0
[16] = Test Cohort (on SSRI), n=12, Day 8
[17] = Test Cohort (on SSRI), n=12, Day 8 vs Day 0

CC(C)N(CCc1c[nH]c2cccc(OC(=O)CCCC(=O)O)c12)C(C)C [iprocin-4-glutarate, N,N diisopropyltryptamine-4-glutarate]
Mean duration of the subjective experience [1]: 3.7 h

CN(C)CCc1c[nH]c2ccccc12 [N,N-dimethyltryptamine, 2-(1H-indol-3-yl)-N,N-dimethylethanamine]
Durability of antidepressant effect [2]: three months or more

CN(C)CCc1c[nH]c2ccccc12.O=C(O)/C=C/C(=O)O [DMT fumarate, N,N-dimethyltryptamine fumarate]
BDI-II score ([3]; Control Cohort, Day 15): 20 and 17 (2×) and 22 and 8 | BDI-II score ([3]; Control Cohort, Day 29): 12 and 13 and 16 and 31 and 2 | BDI-II Mean ([3]; Control Cohort, n=5, Day 15): 16.8 | BDI-II Mean % change from Baseline [3, 7]: −54% | BDI-II Mean ([3]; Control Cohort, n=5, Day 29): 14.8 | BDI-II Mean % change from Baseline [3, 8]: −59% | BDI-II Mean [3, 9]: 5.1 | BDI-II Mean % change from Baseline [3, 10]: −84% | BDI-II Mean [3, 11]: 3.1 | BDI-II Mean % change from Baseline [3, 12]: −88% | BDI-II score [3, 13]: 0 (3×) and 3 (2×) and 29 and 6 and 5 (2×) and 1 (2×) and 8 | BDI-II score [3, 14]: 0 (5×) and 4 and 11 and 7 (2×) and 1 and 2 and 5 | MADRS score ([4]; Control Cohort (no pharmacological treatment), Day 8): 7 and 21 (2×) and 24 and 9 | MADRS score ([4]; Control Cohort (no pharmacological treatment), Day 15): 8 and 18 and 21 and 26 and 7 | MADRS score ([4]; Control Cohort (no pharmacological treatment), Day 29): 17 and 18 and 15 and 30 and 0 | MADRS Mean ([4]; Control Cohort, n=5, Day 8): 16.4 | MADRS Mean % change from Baseline [4, 15]: −53.1% | MADRS Mean ([4]; Control Cohort, n=5, Day 15): 16.0 | MADRS Mean % change from Baseline [4, 7]: −54.2% | MADRS Mean ([4]; Control Cohort, n=5, Day 29): 16.0 | Number of participants in remission (MADRS ≤10) ([4]; Control Cohort, n=5, Day 29): One | Remission (MADRS score ≤10) ([4]; Control Cohort, n=5, Day 29): 20% | Response (≥50% reduction in MADRS score from baseline) ([4]; Control Cohort, n=5, Day 29): 80% | MADRS Mean % change from Baseline [4, 8]: −54.8% | MADRS Mean [4, 16]: 6.7 | MADRS Mean % change from Baseline [4, 17]: −78.1% | MADRS Mean [4, 9]: 6.0 | MADRS Mean % change from Baseline [4, 10]: −81.2% | MADRS Mean [4, 11]: 3.0 | Number of participants in remission (MADRS ≤10) [4, 11]: 11 participants | Remission (MADRS score ≤10) [4, 11]: 92% | Response (≥50% reduction in MADRS score from baseline) [4, 11]: 100% | MADRS Mean % change from Baseline [4, 12]: −90.2% | Number of participants in remission (MADRS ≤10) ([4]; Test Cohort (on SSRI), n=12, all other time points (Day 8, Day 15)): 10 participants | MADRS score ([4]; Test Cohort (on stable SSRI), Day 8, single IV infusion Day 1): 1 (3×) and 0 (2×) and 27 and 21 and 10 and 7 and 2 (2×) and 8 | MADRS score [4, 13]: 1 and 0 (4×) and 27 and 15 and 8 and 3 and 5 and 4 and 9 | MADRS score [4, 14]: 11 and 0 and 8 and 1 and 6 and 7 and 2 | Tolerability ([5]; all patients in both test and control cohorts, no apparent differences between cohorts): well-tolerated | Drug-related serious adverse events ([5]; both cohorts): No drug-related serious adverse events reported | Resolution of drug-related AEs ([5]; both cohorts): majority of drug-related AEs were resolved during the dosing visit | Severity of drug-related AEs ([5]; both cohorts): mild or moderate | Number of drug-related adverse events (AEs) ([5]; control cohort): 3 | Number of drug-related adverse events (AEs) ([5]; test cohort (on SSRI)): 8 | STAI-T score ([6]; Control Cohort, Day 8): 60 and 40 and 44 and 50 and 38 | STAI-T score ([6]; Control Cohort, Day 15): 58 and 46 and 39 and 52 and 41 | STAI-T score ([6]; Control Cohort, Day 29): 51 and 49 and 47 and 59 and 32 | STAI-T Mean ([6]; Control Cohort, n=5, Day 8): 46.4 | STAI-T Mean % change from Baseline [6, 15]: −28.9% | STAI-T Mean ([6]; Control Cohort, n=5, Day 15): 47.2 | STAI-T Mean % change from Baseline [6, 7]: −27.6% | STAI-T Mean ([6]; Control Cohort, n=5, Day 29): 47.6 | STAI-T Mean % change from Baseline [6, 8]: −27.2% | STAI-T Mean [6, 16]: 39.8 | STAI-T Mean % change from Baseline [6, 17]: −33.6% | STAI-T Mean [6, 9]: 37.3 | STAI-T Mean % change from Baseline [6, 10]: −37.5% | STAI-T Mean [6, 11]: 35.2 | STAI-T Mean % change from Baseline [6, 12]: −41.0% | STAI-T score ([6]; Test Cohort (on stable SSRI), Day 8): 47 and 40 (2×) and 66 and 49 and 34 (2×) and 26 and 46 and 28 and 29 and 38 | STAI-T score [6, 13]: 44 and 30 and 62 and 45 and 33 (2×) and 40 (2×) and 42 and 25 and 22 and 32 | STAI-T score [6, 14]: 45 and 34 (2×) and 41 and 43 and 28 and 40 and 32 (2×) and 44 and 26 and 23
